Results: article PMC11045757, “Group 3 medulloblastoma transcriptional networks collapse under domain specific EP300/CBP inhibition” (Nature Communications, 2024)

System: 460 barcoded cancer cell lines
Assay: PRISM pooled barcoded cancer cell line growth screen, 10-point dose-response, 5 days, AUC
Type: cell-based
Set-up: scale not given here
Text: Several small molecule inhibitors of distinct protein domains of EP300/CBP are available, though the majority target the histone acetyltransferase domain (HAT) or bromodomain (BRD)[5],[10],[21],[22]. […] We used these tools to investigate the relative contribution of the EP300/CBP BRD or HAT domain to tumor cell growth (Fig. 1a). To do so, we performed 10-point, dose-response growth assays using mixed pools of 460 barcoded cancer cell lines, over five days of treatment in vitro[33],[34]. Growth was measured using an area-under-the-curve (AUC) approach (Supplementary Table 1, Supplementary Fig. 1a). […] Given potential differences in compound penetration and solubility, and to compare the relative cell line and tumor-specific effects of these two compounds in assays performed non-simultaneously, we performed a median normalization of each dataset (Supplementary Table 2).

CNC(=O)Nc1ccc2c(c1)CCC21OC(=O)N(CC(=O)N(Cc2ccc(F)cc2)C(C)C(F)(F)F)C1=O (stereo not shown) [Compound A485]
AUC (SH4, Melanoma): 0.7491 | AUC (SH10TC, Gastric Cancer): 0.9483 | AUC (SHP77, Lung Cancer): 1 | AUC (SIMA, Neuroblastoma): 0.7689 | AUC (SJSA1, Osteosarcoma): 0.6938 | AUC (SKES1, Ewing Sarcoma): 0.5686 | AUC (SKHEP1, Liver Cancer): 0.9176 | AUC (SKM1, AML): 0.6691 | AUC (SKMEL30, Melanoma): 0.8035 | AUC (SKMES1, Lung Cancer): 0.6858 | AUC (SKMM2, Myeloma): 0.9139 | AUC (SKNAS, Neuroblastoma): 0.7465 | AUC (SKNBE2, Neuroblastoma): 0.711 | AUC (SKNDZ, Neuroblastoma): 0.8727 | AUC (SKNEP1, Ewing Sarcoma): 0.6902 | AUC (SKNMC, Ewing Sarcoma): 0.8779 | AUC (SKNO1, AML): 0.8126 | AUC (SKNSH, Neuroblastoma): 0.7441 | AUC (SKOV3, Ovarian Cancer): 0.768 | AUC (SKUT1, Leiomyosarcoma): 0.8397 | AUC (SNU1, Gastric Cancer): 1 | AUC (SNU46, Head and Neck Cancer): 0.6485 | AUC (SNU61, Colon/Colorectal Cancer): 0.8187 | AUC (SNU81, Colon/Colorectal Cancer): 0.8344 | AUC (SNU182, Liver Cancer): 0.5802 | AUC (SNU201, Glioblastoma): 0.8259 | AUC (SNU213, Pancreatic Cancer): 0.8601 | AUC (SNU216, Gastric Cancer): 0.8096 | AUC (SNU245, Bile Duct Cancer): 0.7564 | AUC (SNU398, Liver Cancer): 0.8358 | AUC (SNU407, Colon/Colorectal Cancer): 0.7333 | AUC (SNU423, Liver Cancer): 0.7846 | AUC (SNU449, Liver Cancer): 0.9343 | AUC (SNU466, Glioblastoma): 0.8159 | AUC (SNU478, Bile Duct Cancer): 0.7556 | AUC (SNU601, Gastric Cancer): 0.8298 | AUC (SNU668, Gastric Cancer): 0.8689 | AUC (SNU685, Endometrial/Uterine Cancer): 0.8766 | AUC (SNU719, Gastric Cancer): 0.9255 | AUC (SNU869, Bile Duct Cancer): 0.9315 | AUC (SNU878, Liver Cancer): 0.7163 | AUC (SNU886, Liver Cancer): 0.7207 | AUC (SNU1041, Head and Neck Cancer): 0.836 | AUC (SNU1066, Head and Neck Cancer): 0.7809 | AUC (SNU1076, Head and Neck Cancer): 0.7922 | AUC (SNU1077, Endometrial/Uterine Cancer): 0.8978 | AUC (SNU1079, Bile Duct Cancer): 0.8976 | AUC (SNU1105, Glioblastoma): 0.823 | AUC (SNU1196, Bile Duct Cancer): 0.8191 | AUC (SNU1214, Head and Neck Cancer): 0.7713 | AUC (SNUC2A, Colon/Colorectal Cancer): 1 | AUC (SNUC4, Colon/Colorectal Cancer): 0.6416 | AUC (SQ1, Lung Cancer): 0.8347 | AUC (SR786, Lymphoma): 0.6609 | AUC (STM9101, Rhabdoid): 0.89 | AUC (SUDHL8, Lymphoma): 0.5295 | AUC (SW48, Colon/Colorectal Cancer): 1 | AUC (SW579, Thyroid Cancer): 0.7659 | AUC (SW620, Colon/Colorectal Cancer): 0.9454 | AUC (SW780, Bladder Cancer): 0.7867 | AUC (SW837, Colon/Colorectal Cancer): 0.675 | AUC (SW900, Lung Cancer): 0.774 | AUC (SW948, Colon/Colorectal Cancer): 0.5667 | AUC (SW1088, Glioma): 0.7952 | AUC (SW1116, Colon/Colorectal Cancer): 0.9547 | AUC (SW1463, Colon/Colorectal Cancer): 0.6958 | AUC (SW1710, Bladder Cancer): 0.7157 | AUC (T3M10, Lung Cancer): 0.9036 | AUC (T24, Bladder Cancer): 0.9232 | AUC (T47D, Breast Cancer): 0.9704 | AUC (TALL1, T-acute leukemia): 0.6985 | AUC (TC71, Ewing Sarcoma): 0.9262 | AUC (TC106, Ewing Sarcoma): 0.5807 | AUC (TC205, Ewing Sarcoma): 0.554 | AUC (TCCPAN2, Pancreatic Cancer): 0.884 | AUC (TCCSUP, Bladder Cancer): 0.8481 | AUC (TE1, Esophageal Cancer): 0.8516 | AUC (TE4, Esophageal Cancer): 0.8986 | AUC (TE5, Esophageal Cancer): 0.8355 | AUC (TE6, Esophageal Cancer): 0.6845 | AUC (TE9, Esophageal Cancer): 0.9819 | AUC (TE10, Esophageal Cancer): 0.7055 | AUC (TE11, Esophageal Cancer): 0.5915 | AUC (TE15, Esophageal Cancer): 0.6898 | AUC (TE617T, Rhabdomyosarcoma): 0.7575 | AUC (TF1, AML): 0.4573 | AUC (TM87, Rhabdoid): 0.6723 | AUC (TOLEDO, Lymphoma): 0.9051 | AUC (TOV21G, Ovarian Cancer): 0.8786 | AUC (TT2609C02, Thyroid Cancer): 0.6078 | AUC (TT, Thyroid Cancer): 0.6637 | AUC (TTC442, Rhabdomyosarcoma): 0.8716 | AUC (TTC549, Rhabdoid): 0.683 | AUC (TTC642, Rhabdoid): 0.604 | AUC (TTC1240, Rhabdoid): 0.6274 | AUC (TYKNU, Ovarian Cancer): 0.7341 | AUC (U2OS, Osteosarcoma): 0.9217 | AUC (U266B1, Myeloma): 0.8925 | AUC (U937, AML): 0.6875 | AUC (UACC62, Melanoma): 0.717 | AUC (UACC257, Melanoma): 0.8193 | AUC (UBLC1, Bladder Cancer): 0.7124 | AUC (UMUC1, Bladder Cancer): 0.6454 | AUC (UW228, Medulloblastoma): 1 | AUC (VMCUB1, Bladder Cancer): 0.6611 | AUC (VMRCRCW, Kidney Cancer): 0.8987 | AUC (VMRCRCZ, Kidney Cancer): 0.5968 | AUC (WM88, Melanoma): 0.5816 | AUC (WM793, Melanoma): 0.8497 | AUC (WM983B, Melanoma): 0.7071 | AUC (YAPC, Pancreatic Cancer): 0.8726 | AUC (YD10B, Head and Neck Cancer): 0.7608 | AUC (YD15, Head and Neck Cancer): 0.6259 | AUC (YD38, Head and Neck Cancer): 0.5959 | AUC (YH13, Glioblastoma): 0.7751
